Data from PubChem BioAssay AID330 (DTP/NCI, 2004).
Where “and” joins values, the source holds several entries; their conditions need not be identical. Equal values may be shown once. Toxic doses and inconclusive results are not listed. How the source made its calls: active means survival T/C of 150% or more; inactive means T/C below 125% in these data.

Tested on: P388 leukemia ip, CD2F1 mice, survival T/C
Assay: NCI In Vivo Anticancer Drug Screen. Data for tumor model P388 Leukemia (intraperitoneal) in CD2F1 (CDF1) mice
Settings: endpoint: median survival time, higher = longer survival
How it was run: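 Mice carrying the transplanted tumor received test compound or vehicle. Survival was recorded in each group, and the value is the treated-group measurement divided by that of the vehicle-treated control group.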

[1] = dose: 12.5 mg/kg/injection, schedule: Q01DX009 (ip), vehicle: Klucel (hydroxypropylcellulose) (HPC)
[2] = dose: 25.0 mg/kg/injection, schedule: Q01DX009 (ip), vehicle: Klucel (hydroxypropylcellulose) (HPC)
[3] = dose: 50.0 mg/kg/injection, schedule: Q01DX005 (ip), vehicle: Klucel (hydroxypropylcellulose) (HPC)
[4] = dose: 100.0 mg/kg/injection, schedule: Q01DX005 (ip), vehicle: Klucel (hydroxypropylcellulose) (HPC)
[5] = dose: 200.0 mg/kg/injection, schedule: Q01DX005 (ip), vehicle: Klucel (hydroxypropylcellulose) (HPC)
[6] = dose: 50.0 mg/kg/injection, schedule: Q01DX009 (ip), vehicle: Klucel (hydroxypropylcellulose) (HPC)
[7] = dose: 50.0 mg/kg/injection, schedule: Q01DX009 (ip), vehicle: saline
[8] = dose: 100.0 mg/kg/injection, schedule: Q01DX009 (ip), vehicle: saline
[9] = dose: 50.0 mg/kg/injection, schedule: Q01DX005 (ip), vehicle: saline with Tween-80
[10] = dose: 100.0 mg/kg/injection, schedule: Q01DX005 (ip), vehicle: saline with Tween-80
[11] = dose: 200.0 mg/kg/injection, schedule: Q01DX005 (ip), vehicle: saline with Tween-80

Measured: T/C

O=NNc1ccc(-c2ccc(NN=O)cc2)cc1
inactive: dose: 3.12 mg/kg/injection, schedule: Q01DX009 (ip), vehicle: water 97 % of control | dose: 6.25 mg/kg/injection, schedule: Q01DX009 (ip), vehicle: water 95 % of control | dose: 12.5 mg/kg/injection, schedule: Q01DX009 (ip), vehicle: water 97 % of control | dose: 25.0 mg/kg/injection, schedule: Q01DX009 (ip), vehicle: water 100 % of control and 89 % of control | dose: 50.0 mg/kg/injection, schedule: Q01DX009 (ip), vehicle: water 89 % of control and 94 % of control | dose: 100.0 mg/kg/injection, schedule: Q01DX009 (ip), vehicle: water 88 % of control | dose: 200.0 mg/kg/injection, schedule: Q01DX009 (ip), vehicle: water 91 % of control

CC(C)=CCC/C(C)=C/CC/C(C)=C/CC/C=C(\C)CC/C=C(\C)CCC[N+](C)(C)[O-]
inactive: dose: 60.0 mg/kg/injection, schedule: Q01DX005 (ip), vehicle: saline 101 % of control | dose: 120.0 mg/kg/injection, schedule: Q01DX005 (ip), vehicle: saline 101 % of control | dose: 240.0 mg/kg/injection, schedule: Q01DX005 (ip), vehicle: saline 99 % of control

CC(=O)N(C)C(C(=O)N1CC(C)CC1C(=O)N(C)C1C(=O)NC(CC(C)C)C(=O)N2CC(C)CC2C(=O)NC(CC(C)C)C(=O)N(C)C(C(C)C)C(=O)N2CCCC2C(=O)N(C)C(CC(C)C)C(=O)NCC(=O)OC1C)C(C)C (stereo unspecified)
inactive: dose: 3.12 mg/kg/injection, schedule: Q01DX009 (ip), vehicle: Klucel (hydroxypropylcellulose) (HPC) 103 % of control | dose: 6.25 mg/kg/injection, schedule: Q01DX009 (ip), vehicle: Klucel (hydroxypropylcellulose) (HPC) 97 % of control | [1] 100 % of control | dose: 18.75 mg/kg/injection, schedule: Q01DX009 (ip), vehicle: Klucel (hydroxypropylcellulose) (HPC) 93 % of control | [2] 93 % of control

O=C(NC12OC3CC(CC(C3)O1)O2)NC12OC3CC(CC(C3)O1)O2
inactive: dose: 100.0 mg/kg/injection, schedule: Q01DX001 (ip), vehicle: saline with Tween-80 100 % of control | dose: 200.0 mg/kg/injection, schedule: Q01DX001 (ip), vehicle: saline with Tween-80 100 % of control | dose: 400.0 mg/kg/injection, schedule: Q01DX001 (ip), vehicle: saline with Tween-80 111 % of control

Cc1ccccc1N1CCN(C(=O)c2nc3ccccc3[nH]2)CC1
inactive: [3] 91 % of control | [4] 87 % of control | [5] 101 % of control

COC(=O)c1c(-c2ccc3c(c2)OCO3)c(C=O)n(C)c1C
inactive: dose: 100.0 mg/kg/injection, schedule: Q04DX002 (ip), vehicle: saline with Tween-80 90 % of control | dose: 200.0 mg/kg/injection, schedule: Q04DX002 (ip), vehicle: saline with Tween-80 87 % of control | dose: 400.0 mg/kg/injection, schedule: Q04DX002 (ip), vehicle: saline with Tween-80 89 % of control

CCCCCCCCCCCCCCCCCCN(C)C
inactive: [2] 100 % of control | [6] 101 % of control

Cn1nnc2c1CN=CN2
inactive: [7] 117 % of control | [8] 103 % of control | dose: 200.0 mg/kg/injection, schedule: Q01DX009 (ip), vehicle: saline 112 % of control

CN(C)CCC(=O)c1ccc(Cl)cc1
inactive: [7] 106 % of control | [8] 105 % of control

CCOC(=O)C1=C(NC(=O)Nc2ccccc2)N(C(=O)Nc2ccccc2)CCC1
inactive: dose: 100.0 mg/kg/injection, schedule: Q04DX003 (ip), vehicle: Klucel (hydroxypropylcellulose) (HPC) 100 % of control | dose: 200.0 mg/kg/injection, schedule: Q04DX003 (ip), vehicle: Klucel (hydroxypropylcellulose) (HPC) 99 % of control | dose: 400.0 mg/kg/injection, schedule: Q04DX003 (ip), vehicle: Klucel (hydroxypropylcellulose) (HPC) 102 % of control

Nc1nc([Se])c2ncn(C3CC(O)C(CO)O3)c2n1 (stereo unspecified)
active: [1] 160 % of control | [2] 169 % of control and 173 % of control
inactive: [6] 112 % of control

COc1ccc(CSc2nn(CCC#N)c(=O)[nH]c2=O)cc1
inactive: [9] 95 % of control | [10] 97 % of control | [11] 94 % of control

OC(CCCCOc1ccccc1)(c1ccccc1)c1ccccc1
inactive: dose: 60.0 mg/kg/injection, schedule: Q01DX005 (ip), vehicle: saline with Tween-80 100 % of control | dose: 120.0 mg/kg/injection, schedule: Q01DX005 (ip), vehicle: saline with Tween-80 101 % of control | dose: 240.0 mg/kg/injection, schedule: Q01DX005 (ip), vehicle: saline with Tween-80 101 % of control

CC1NNC(=S)NN1
inactive: dose: 15.0 mg/kg/injection, schedule: Q01DX005 (ip), vehicle: saline with Tween-80 101 % of control | dose: 30.0 mg/kg/injection, schedule: Q01DX005 (ip), vehicle: saline with Tween-80 101 % of control

NC(=O)SCCC(=O)Nc1ccccc1
inactive: [3] 105 % of control | [4] 105 % of control | [5] 109 % of control

CCN(CC)P1(=O)OC(c2ccccc2)=CCN1c1ccc(OC)cc1 (stereo unspecified)
inactive: [3] 102 % of control | [4] 110 % of control | [5] 103 % of control

Nc1cccc2c1-c1ccccc1C2=O
inactive: dose: 6.25 mg/kg/injection, schedule: Q01DX005 (ip), vehicle: saline with Tween-80 98 % of control | dose: 12.5 mg/kg/injection, schedule: Q01DX005 (ip), vehicle: saline with Tween-80 98 % of control | dose: 25.0 mg/kg/injection, schedule: Q01DX005 (ip), vehicle: saline with Tween-80 92 % of control | [10] 92 % of control

CC(C)([NH-])CO.CC(C)([NH-])CO.[Cl][Cd][Cl]
inactive: dose: 3.13 mg/kg/injection, schedule: Q01DX009 (ip), vehicle: saline 91 % of control | dose: 6.25 mg/kg/injection, schedule: Q01DX009 (ip), vehicle: saline 91 % of control

C=C(C)c1nc(N)nc(-c2cccc(-c3nc(N)nc(C(=C)C)n3)c2)n1
inactive: [3] 95 % of control | [4] 99 % of control | [5] 100 % of control

CCOC(=O)C(=O)Nc1oc(C)c(C)c1C#N
inactive: dose: 12.5 mg/kg/injection, schedule: Q01DX009 (ip), vehicle: saline + alcohol 100 % of control and 107 % of control and 118 % of control | dose: 25.0 mg/kg/injection, schedule: Q01DX009 (ip), vehicle: saline + alcohol 109 % of control and 116 % of control and 124 % of control | dose: 25.0 mg/kg/injection, schedule: Q04DX003 (ip), vehicle: saline + alcohol 115 % of control | dose: 50.0 mg/kg/injection, schedule: Q04DX003 (ip), vehicle: saline + alcohol 106 % of control | dose: 100.0 mg/kg/injection, schedule: Q01DX001 (ip), vehicle: saline + alcohol 95 % of control | dose: 100.0 mg/kg/injection, schedule: Q01DX009 (ip), vehicle: saline + alcohol 110 % of control and 93 % of control | dose: 100.0 mg/kg/injection, schedule: Q04DX003 (ip), vehicle: saline + alcohol 112 % of control | dose: 200.0 mg/kg/injection, schedule: Q01DX001 (ip), vehicle: saline + alcohol 96 % of control

CN(CCN1C(=O)c2cccc3cc(N)cc(c23)C1=O)CCN1C(=O)c2cccc3cc(N)cc(c23)C1=O
inactive: [9] 112 % of control | [10] 106 % of control | [11] 107 % of control

C=C1C2CC[C@@H]3C45C=NC[C@@](C)(CCC4)[C@@H]5CCC3(C2)[C@@H]1OC(C)=O
inactive: dose: 4.0 mg/kg/injection, schedule: Q01DX009 (ip), vehicle: Klucel (hydroxypropylcellulose) (HPC) 94 % of control | dose: 8.0 mg/kg/injection, schedule: Q01DX009 (ip), vehicle: Klucel (hydroxypropylcellulose) (HPC) 94 % of control | dose: 16.0 mg/kg/injection, schedule: Q01DX009 (ip), vehicle: Klucel (hydroxypropylcellulose) (HPC) 95 % of control | dose: 32.0 mg/kg/injection, schedule: Q01DX009 (ip), vehicle: Klucel (hydroxypropylcellulose) (HPC) 96 % of control

CN(C)CCN(Cc1ccccc1)c1ccc2ccccc2n1
inactive: dose: 6.25 mg/kg/injection, schedule: Q01DX005 (ip), vehicle: Klucel (hydroxypropylcellulose) (HPC) 97 % of control | dose: 12.5 mg/kg/injection, schedule: Q01DX005 (ip), vehicle: Klucel (hydroxypropylcellulose) (HPC) 97 % of control | dose: 25.0 mg/kg/injection, schedule: Q01DX005 (ip), vehicle: Klucel (hydroxypropylcellulose) (HPC) 99 % of control

C=C=CCN(C)Cc1ccccc1
inactive: dose: 25.0 mg/kg/injection, schedule: Q04DX002 (ip), vehicle: saline 106 % of control | dose: 50.0 mg/kg/injection, schedule: Q04DX002 (ip), vehicle: saline 93 % of control | dose: 100.0 mg/kg/injection, schedule: Q04DX002 (ip), vehicle: saline 100 % of control and 101 % of control
